Source: patent US20230248653A1, “ELECTROSPRAYED AND ELECTROSPUN CANNABINOID COMPOSITIONS AND PROCESS TO PRODUCE” (priority 2019, published 2023)

Assay: Solubility of CBD in water, HFIP and acetic acid-water solutions
Type: physicochemical
Description: Fast dissolving particles were produced using edible gelatin nanoscale particles created from acetic acid-water based solutions. A solution was created, and the electrospray process was repeated to see if reproducible results were obtainable.
In order to create CBD particles in a gelatin-based solution, the solubility of CBD in different acetic acid-water based solutions was explored.

Structure (SMILES): C=C(C)[C@@H]1CCC(C)=C[C@H]1c1c(O)cc(CCCCC)cc1O [CBD, Cannabidiol]
- solubility in acetic acid-water solution (30% v/v AA(aq.)): Emulsions were formed
- solubility in acetic acid-water solution (40% v/v AA(aq.)): Emulsions were formed
- solubility in acetic acid-water solution (50% v/v AA(aq.) and higher concentrations): clear, homogeneous and well mixed soluble CBD solution
- solubility in HFIP (HFIP): soluble
- solubility in water (water): not able to dissolve in water
